# Values quoted from earlier work in patent US20080200527A1, “Cannabinoid Receptor Modulators” (Carex SA, priority 2005, published 2008).
# System: absorption of dietary fat
# Conditions: in vivo
structure (smiles),measurement,value
CCCCCCCCCCC[C@@H](C[C@@H]1OC(=O)[C@H]1CCCCCC)OC(=O)[C@H](CC(C)C)NC=O [orlistat],block of the absorption of dietary fat,up to 30%
